Measured values published in US20070293518A1, “PROLONGED IMPROVEMENT OF RENAL FUNCTION COMPRISING INFREQUENT ADMINISTRATION OF AN AA1RA” (priority 2006, published 2007).
Values joined by “and” are separate entries in the source; they are usually repeats but may differ in a detail not shown here. Equal entries are not always repeated. Where two headings read alike, the source gives them in different places. Marks after values point to notes of the source that are not given here.

How the values were obtained:
[1] = Pharmacokinetic study of KW-3902, single intravenous dose, serum concentrations; format: in vivo; settings: human; for clearance: read-out: CL∞ Mean (converted); for half-life: read-out: T1/2 Mean (converted); for Tmax: read-out: Tmax Median; for Vd: read-out: Vss∞ Mean
Method: Individuals received a single intravenous dose of 1 mg, 2.5 mg. 5 mg, 10 mg, 20 mg, 30 mg 40 mg, 50 mg or 60 mg KW-3902 as indicated. The serum concentrations of KW-3902 and its M1-trans metabolite were measured using routine analytical methods. Routine mathematical formulae were used to determine pharmacokinetic values.

[2] = test system: subjects with congestive heart failure refractory to standard diuretic therapy; assay: Double-blind placebo-controlled study in CHF patients refractory to standard diuretic therapy: creatinine clearance; format: in vivo, human; settings: 30 mg intravenous infusion with current diuretic therapy; 0-24 hours; FIG. 4
Method: A double-blind placebo-controlled study was conducted as follows: 35 subjects with congestive heart failure that were refractory to standard diuretic therapy were identified. […] The patients' diuretic therapy was stopped at least 5 hours before prior to the treatment. Staring at −3 hours, urine was collected for volume and creatinine clearance measurements. […] Blood and urine samples were colleted at 0, 3, 6, 9, 12 and 24 hours following study drug administration.

[3] = test system: patients with CHF and renal impairment; assay: Double-blind placebo-controlled study in CHF patients with acute fluid overload and renal impairment: sustained worsening renal function; format: in vivo, human; settings: 2.5, 15, 30 or 60 mg IV days 1 through 3; FIG. 6
Method: Worsening renal function was defined as a ≧0.3 mg/dL increase in serum creatinine.

[4] = test system: heart failure patients with renal impairment who are treated with diuretics; assay: Double-blind cross-over study in stable CHF: GFR, RPF, urine volume; format: in vivo, human; settings: for GFR % Difference Between KW-3902 and Placebo / GFR Percent Change from Baseline / RPF % Difference Between KW-3902 and Placebo / RPF Percent Change from Baseline: 30 mg KW-3902 IV plus 80 mg IV furosemide
Method: A double-blind, multi-center, cross-over designed, controlled study was conducted as follows: Approximately 23 outpatient subjects were randomized. […] Subjects received at least two treatments that were at least three days apart, with a median interval between treatments of 6 days. […] Patients that received KW-3902 on the first visit received placebo on the second visit, and vice versa. Infusions of lothalamate ([…]) and para-aminohippurate were administered according to standard protocols to assess glomerular filtration rate (GFR) and renal plasma flow (RPF), respectively. Iothalamate and para-aminohippurate were administered over 180 minutes before treatment with KW-3902/placebo and 8 hours after treatment with KW-3902/placebo. Urine and plasma were collected for GFR and RPF at baseline and 2, 4, and 8 hours. The mean GFR at baseline was 61 mL/min.

[5] = test system: subjects hospitalized due to acute CHF requiring intravenous diuretic therapy; assay: Study in subjects hospitalized due to acute CHF requiring intravenous diuretic therapy: serum creatinine, worsening renal function; format: in vivo, human
Method: More than 300 subjects hospitalized due to acute CHF requiring intravenous diuretic therapy to treat fluid overload, and presenting with creatinine clearance values between 20 to 80 mL/min were identified. The subjects were randomized to receive either placebo, or 10 mg, 20 mg or 30 mg intravenous KW-3902 per day. The subjects' BNP levels, NT-Pro-BNP, serum creatinine, weight, and NYHA Class were measured.
On day 1, KW-3902 (or placebo) was co-administered with intravenous furosemide (LASIX™). The specified dose of KW-3902 (or placebo) was infused over a four hour time period. Subjects received therapy for up to three days, as required. Serum creatinine, weight, dyspnea, and worsening heart failure were assessed daily by the investigator on days 1 through 14. Worsening renal function was defined as a ≧0.3 mg/dL increase in serum creatinine.
A subgroup of subjects received a single dose of KW-3902 and LASIX or a single dose of placebo and LASIX.

[6] = 1 mg, single intravenous dose 1 mg, Group 1, serum
[7] = 2.5 mg, single intravenous dose 2.5 mg, Group 1 (n = 4)
[8] = 2.5 mg, single intravenous dose 2.5 mg, Group 2 (n = 8)
[9] = 5 mg, single intravenous dose 5 mg, Group 2, serum
[10] = 10 mg, single intravenous dose 10 mg, Group 2, serum
[11] = 20 mg, single intravenous dose 20 mg, Group 3, serum
[12] = 30 mg, single intravenous dose 30 mg, Group 3, serum
[13] = 40 mg, single intravenous dose 40 mg, Group 4, serum
[14] = 50 mg, single intravenous dose 50 mg, Group 4, serum
[15] = 60 mg, single intravenous dose 60 mg, Group 4, serum
[16] = serum, individual subjects of subgroup, single dose of KW-3902 and LASIX

CCCn1c(=O)c2[nH]c(C34CC5CC(CC3C5)C4)nc2n(CCC)c1=O [KW-3902, 8-(3-noradamantyl)-1,3-dipropylxanthine]
AUC(0-inf) [1, 6]: 31.5 ng·h/mL | Cmax [1, 6]: 12.9 ng/mL | MRT inf [1, 6]: 2.6 h | clearance [1, 6]: 610 mL/min | half-life [1, 6]: 2.8 h | Tmax [1, 6]: 0.5 h | Vd [1, 6]: 58.9 L | AUC(0-inf) [1, 7]: 97.6 ng·h/mL | Cmax [1, 7]: 35.6 ng/mL | MRT inf [1, 7]: 8.1 h | clearance [1, 7]: 443 mL/min | half-life [1, 7]: 11.4 h | Tmax [1, 7]: 1.2 h | Vd [1, 7]: 185 L | AUC(0-inf) [1, 8]: 84 ng·h/mL | Cmax [1, 8]: 35.9 ng/mL | MRT inf [1, 8]: 4.7 h | clearance [1, 8]: 518 mL/min | half-life [1, 8]: 7.3 h | Tmax [1, 8]: 0.5 h | Vd [1, 8]: 117 L | AUC(0-inf) [1, 9]: 221 ng·h/mL | Cmax [1, 9]: 90.9 ng/mL | MRT inf [1, 9]: 5.8 h | clearance [1, 9]: 435 mL/min | half-life [1, 9]: 9.6 h | Tmax [1, 9]: 0.5 h | Vd [1, 9]: 106 L | AUC(0-inf) [1, 10]: 496 ng·h/mL | Cmax [1, 10]: 186 ng/mL | MRT inf [1, 10]: 8.7 h | clearance [1, 10]: 350 mL/min | half-life [1, 10]: 14.4 h | Tmax [1, 10]: 0.5 h | Vd [1, 10]: 161 L | AUC(0-inf) [1, 11]: 898 ng·h/mL | Cmax [1, 11]: 294 ng/mL | MRT inf [1, 11]: 11.5 h | clearance [1, 11]: 390 mL/min | half-life [1, 11]: 18 h | Tmax [1, 11]: 1.2 h | Vd [1, 11]: 244 L | AUC(0-inf) [1, 12]: 1190 ng·h/mL | Cmax [1, 12]: 457 ng/mL | MRT inf [1, 12]: 7.7 h | clearance [1, 12]: 455 mL/min | half-life [1, 12]: 14.7 h | Tmax [1, 12]: 0.6 h | Vd [1, 12]: 189 L | AUC(0-inf) [1, 13]: 1870 ng·h/mL | Cmax [1, 13]: 452 ng/mL | MRT inf [1, 13]: 9.4 h | clearance [1, 13]: 372 mL/min | half-life [1, 13]: 16.1 h | Tmax [1, 13]: 2.2 h | Vd [1, 13]: 178 L | AUC(0-inf) [1, 14]: 2120 ng·h/mL | Cmax [1, 14]: 579 ng/mL | MRT inf [1, 14]: 7.9 h | clearance [1, 14]: 427 mL/min | half-life [1, 14]: 15.5 h | Tmax [1, 14]: 1.6 h | Vd [1, 14]: 166 L | AUC(0-inf) [1, 15]: 2720 ng·h/mL | Cmax [1, 15]: 682 ng/mL | MRT inf [1, 15]: 9.2 h | clearance [1, 15]: 378 mL/min | half-life [1, 15]: 16.4 h | Tmax [1, 15]: 2.2 h | Vd [1, 15]: 176 L | Change in creatinine clearance from baseline (in words) [2]: improvement in renal function over time | Sustained worsening renal function (≧0.3 mg/dL increase in serum creatinine), in words [3]: improves renal function | GFR % Difference Between KW-3902 and Placebo ([4]; 0-2 hours): 27.3* % | GFR Percent Change from Baseline ([4]; 0-2 hours): 22.1* Percent | RPF % Difference Between KW-3902 and Placebo ([4]; 0-2 hours): 27.7* % | RPF Percent Change from Baseline ([4]; 0-2 hours): 33.3* Percent | GFR % Difference Between KW-3902 and Placebo ([4]; 0-8 hours): 23.4* % | GFR Percent Change from Baseline ([4]; 0-8 hours): 32.1* Percent | RPF % Difference Between KW-3902 and Placebo ([4]; 0-8 hours): 24.9* % | RPF Percent Change from Baseline ([4]; 0-8 hours): 47.7** Percent | GFR % Difference Between KW-3902 and Placebo ([4]; 2-4 hours): 7.6% | GFR Percent Change from Baseline ([4]; 2-4 hours): 8.5% | RPF % Difference Between KW-3902 and Placebo ([4]; 2-4 hours): 12.7% | RPF Percent Change from Baseline ([4]; 2-4 hours): 41.7% | GFR % Difference Between KW-3902 and Placebo ([4]; 4-8 hours): 30.1* % | GFR Percent Change from Baseline ([4]; 4-8 hours): 41.3* Percent | RPF % Difference Between KW-3902 and Placebo ([4]; 4-8 hours): 30.0* % | RPF Percent Change from Baseline ([4]; 4-8 hours): 55.8* Percent | Effect on GFR (in words) ([4]; FIG. 2): statistically significant increase | Effect on renal plasma flow (in words) ([4]; FIG. 3): statistically significant increase | Urine volume over 8 hours ([4]; KW-3902 plus furosemide): 2995.1 ± 1138.17 mL | Persistence of the increase in GFR noted at 8 hours ([4]; subgroup that received KW-3902 on the first visit, follow-up baseline (median 6 days), FIG. 5): persisted at the time of follow-up baseline | Change in mean serum creatinine levels (in words) ([5]; 30 mg per day IV up to three days, Day 14, FIG. 8): overall decrease in serum creatinine levels | Increase in the percentage of individuals with worsening renal failure, compared to placebo ([5]; days 2, 3, 4, 5, 6, and 7, FIG. 7): lower | Δ Creatinine ([5]; serum, Day 14 vs Day 1, individual subjects of subgroup, single dose of KW-3902 and LASIX): −0.5 mg/dL and 0 mg/dL (2×) and 0.2 mg/dL and −0.2 mg/dL and −0.1 mg/dL | Day 1 Creatinine [5, 16]: 1.7 mg/dL and 1.4 mg/dL and 1.15 mg/dL and 2.9 mg/dL and 1.6 mg/dL and 3.2 mg/dL and 1.0 mg/dL | Day 14 Creatinine [5, 16]: 1.2 mg/dL and 1.4 mg/dL and 1.3 mg/dL and 2.7 mg/dL (2×) and 1.0 mg/dL | Mean change in serum creatinine levels (in words) ([5]; single dose subgroup (30 mg KW-3902), Day 14): mean decrease in serum creatinine levels
